Assay results reported in PubChem BioAssay (NCI).
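Method: 48-hour compound exposure of cells in 96-well plates, five concentrations, linear interpolation of endpoints. At the TGI there is no net growth.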

What was measured:
Assay in all cases: NCI tumour cell line growth inhibition, 48 h
[1] = test system: U251 CNS
[2] = test system: DMS 114 small cell lung
[3] = test system: SW-620 colon
[4] = test system: OVCAR-8 ovarian
[5] = test system: HOP-62 NSCLC
[6] = test system: EKVX NSCLC
[7] = test system: NCI-H23 lung
[8] = test system: OVCAR-3 ovarian
[9] = test system: SNB-19 CNS
[10] = test system: M14 melanoma
[11] = test system: HT29 colon
[12] = test system: RXF-631 renal
[13] = test system: SNB-75 CNS
[14] = test system: HCT-116 colon
[15] = test system: COLO 205 colon
[16] = test system: OVCAR-5 ovarian
[17] = test system: LOX IMVI melanoma
[18] = test system: KM12 colon
[19] = test system: NCI-H226 lung
[20] = test system: TK-10 renal
[21] = test system: ACHN renal
[22] = test system: SNB-78 CNS
[23] = test system: RXF 393 renal
[24] = test system: 786-0 renal
[25] = test system: NCI-H460 lung
[26] = test system: DLD-1 colon
[27] = test system: RPMI-8226 leukemia
[28] = test system: SF-268 CNS
[29] = test system: HOP-18 NSCLC
[30] = test system: UACC-257 melanoma
[31] = test system: SF-295 CNS
[32] = test system: M19-MEL melanoma
[33] = test system: KM20L2 colon
[34] = test system: SN12C renal
[35] = test system: IGROV1 ovarian
[36] = test system: HL-60(TB) leukemia
[37] = test system: SK-MEL-28 melanoma
[38] = test system: MOLT-4 leukemia
[39] = test system: OVCAR-4 ovarian
[40] = test system: SK-MEL-5 melanoma
[41] = test system: HCC-2998 colon
[42] = test system: UO-31 renal
[43] = test system: CCRF-CEM leukemia
[44] = test system: A549 NSCLC
[45] = test system: HOP-92 NSCLC
[46] = test system: MALME-3M melanoma
[47] = test system: UACC-62 melanoma
[48] = test system: SK-MEL-2 melanoma
[49] = test system: LXFL 529 NSCLC
[50] = test system: DMS 273 small cell lung
[51] = test system: NCI-H522 lung
[52] = test system: K-562 leukemia
[53] = test system: A498 renal
[54] = test system: HCT-15 colon
[55] = test system: SF-539 CNS
[56] = test system: CAKI-1 renal
[57] = test system: SK-OV-3 ovarian

SMILES: O=C(CC1Sc2ccccc2NC1=O)Nc1ccc([N+](=O)[O-])cc1[N+](=O)[O-] (centres undefined)
- TGI [1]: 30.3 µM
- TGI [2]: 27.5 µM
- TGI [3]: 32.4 µM
- TGI [4]: 31 µM
- TGI [5]: > 100 µM
- TGI [6]: 69.2 µM
- TGI [7]: 27.2 µM
- TGI [8]: 31.5 µM
- TGI [9]: 40.7 µM
- TGI [10]: 31.2 µM
- TGI [11]: 33.1 µM
- TGI [12]: 41.4 µM
- TGI [13]: 38.7 µM
- TGI [14]: 29.8 µM
- TGI [15]: > 100 µM
- TGI [16]: 62.3 µM
- TGI [17]: 30.1 µM
- TGI [18]: 59.5 µM
- TGI [19]: 42.6 µM
- TGI [20]: > 100 µM
- TGI [21]: 30.3 µM
- TGI [22]: 51.7 µM
- TGI [23]: 26.3 µM
- TGI [24]: 31.7 µM
- TGI [25]: 59.5 µM
- TGI [26]: 28.6 µM
- TGI [27]: 32.3 µM
- TGI [28]: 30.9 µM
- TGI [29]: 46 µM
- TGI [30]: 46.2 µM
- TGI [31]: 34.2 µM
- TGI [32]: 30.3 µM
- TGI [33]: 79.5 µM
- TGI [34]: 29.7 µM
- TGI [35]: 39.1 µM
- TGI [36]: 41.9 µM
- TGI [37]: 31.8 µM
- TGI [38]: 62.6 µM
- TGI [39]: 52.6 µM
- TGI [40]: 33.4 µM
- TGI [41]: > 100 µM
- TGI [42]: 25.1 µM
- TGI [43]: 39.6 µM
- TGI [44]: 88.7 µM
- TGI [45]: 31.3 µM
- TGI [46]: 40.6 µM
- TGI [47]: 28.8 µM
- TGI [48]: 46.5 µM
- TGI [49]: 28.7 µM

SMILES: O=C(CCCCCCCCC(=O)OCCCn1cc(C(=O)NC(=O)OCc2ccccc2)c(=O)[nH]c1=O)OCCCn1cc(C(=O)NC(=O)OCc2ccccc2)c(=O)[nH]c1=O
- TGI [50]: > 100 µM
- TGI [51]: > 100 µM
- TGI [52]: > 100 µM
- TGI [1]: > 100 µM
- TGI [3]: > 100 µM
- TGI [4]: > 100 µM
- TGI [5]: > 100 µM
- TGI [6]: > 100 µM
- TGI [53]: > 100 µM
- TGI [7]: > 100 µM
- TGI [8]: > 100 µM
- TGI [9]: > 100 µM
- TGI [10]: > 100 µM
- TGI [11]: > 100 µM
- TGI [12]: > 100 µM
- TGI [13]: > 100 µM
- TGI [14]: > 100 µM
- TGI [15]: > 100 µM
- TGI [16]: > 100 µM
- TGI [17]: > 100 µM
- TGI [18]: > 100 µM
- TGI [19]: > 100 µM
- TGI [20]: > 100 µM
- TGI [21]: > 100 µM
- TGI [22]: > 100 µM
- TGI [23]: > 100 µM
- TGI [24]: > 100 µM
- TGI [54]: > 100 µM
- TGI [25]: > 100 µM
- TGI [26]: > 100 µM
- TGI [27]: > 100 µM
- TGI [28]: > 100 µM
- TGI [29]: > 100 µM
- TGI [30]: > 100 µM
- TGI [31]: > 100 µM
- TGI [32]: > 100 µM
- TGI [33]: > 100 µM
- TGI [34]: > 100 µM
- TGI [35]: > 100 µM
- TGI [36]: > 100 µM
- TGI [37]: > 100 µM
- TGI [38]: > 100 µM
- TGI [39]: > 100 µM
- TGI [40]: > 100 µM
- TGI [55]: > 100 µM
- TGI [41]: > 100 µM
- TGI [42]: > 100 µM
- TGI [56]: > 100 µM
- TGI [43]: > 100 µM
- TGI [44]: > 100 µM
- TGI [45]: > 100 µM
- TGI [46]: > 100 µM
- TGI [47]: > 100 µM
- TGI [48]: > 100 µM
- TGI [57]: > 100 µM
